Consider three molecules from PMC10470053, “Diverse p120RasGAP interactions with doubly phosphorylated partners EphB4, p190RhoGAP, and Dok1” (The Journal of Biological Chemistry, 2023).

Series [1] concerns the target p190RhoGAP-A doubly phosphorylated peptide (Homo sapiens) (UniProt Q9NRY4). Kind of series: ITC. The settings on record: cited from earlier work.
Series [2] is described as follows: Reconstitution of lyophilized peptides in water. Format: physicochemical. The following applies: lyophilized peptide reconstituted in water; spiked with 20 mM Tris pH 8 or 10 mM NaOH to increase solubility. An excerpt:
Synthetic peptides were purchased from GenScript and contain N-terminal acetylation and C-terminal amidation for stability. The doubly phosphorylated EphB4 peptide (UniProt ID P54760) used in ITC and SAXS experiments contains residues 586 to 602 (GTKV[pTyr]IDPFT[pTyr]EDPNEA). The singly phosphorylated EphB4 peptides pY590 and pY596 used in ITC experiments contain the residues 586 to 595 (GTKV[pTyr]IDPFT) and residues 592 to 602 (DPFT[pTyr]EDPNE), respectively. The p190RhoGAP peptide (UniProt ID Q9NRY4) used in SAXS experiments contains the residues 1083 to 1111 (SD[pTyr]AEPMDAVVKPRNEEENI[pTyr]SVPH). The Dok1 peptide (UniProt ID Q99704) used in ITC and SAXS experiments contains the residues 291 to 322 (SPPAL[pTyr]AEPLDSLRIAPCPSQDSL[pTyr]SDPLDST). Lyophilized peptides were reconstituted in water, and less soluble peptides (pYpYEphB4 and pY590) were spiked with 20 mM Tris pH 8 or 10 mM NaOH to increase solubility. Concentrations of stock peptides are as follows: pYpY190 stock concentration is 10 mM; pYpYEphB4 stock concentration is 2.5 mM; Dok1 stock concentration is 5.5 mM; pY596 stock concentration is 10 mM; and pY590 stock concentration is 8 mM.

Series [3] has as its target T1, RasGAP^232(mut) (R398E/K400E, C-SH2 mutant) (Homo sapiens, UniProt P20936, C236S/C261S/C372S/C402S/K400E/R398E).
T1 construct: (residues 174–444, termed RasGAP^232); hexahistidine (TEV-cleavable) (N, cleaved yes); made in house; host or cells: E. coli Rosetta (DE3)
T1 sequence (P20936 174-444 C236S/C261S/C372S/R398E/K400E/C402S): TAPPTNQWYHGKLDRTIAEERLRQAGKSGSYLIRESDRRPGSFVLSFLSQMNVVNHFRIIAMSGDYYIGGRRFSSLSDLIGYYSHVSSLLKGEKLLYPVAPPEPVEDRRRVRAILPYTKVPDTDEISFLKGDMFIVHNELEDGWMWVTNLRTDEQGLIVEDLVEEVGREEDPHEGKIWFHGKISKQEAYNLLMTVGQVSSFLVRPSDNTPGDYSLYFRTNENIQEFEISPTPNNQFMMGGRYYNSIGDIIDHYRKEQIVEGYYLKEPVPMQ
Kind of series: Isothermal titration calorimetry, C-SH2 mutant RasGAP^232(mut). In kind it is binding. The protocol: One possibility for the difference in binding affinity of EphB4 compared to the other dually phosphorylated peptides is that only a single SH2 domain engages EphB4 at any time. This is supported by the observation that the Kd of binding, 2 μM, is similar to other reported individual SH2 phosphotyrosine interactions (for examples see ([60])) and the evidence of only one inflection point in the doubly phosphorylated EphB4–binding isotherm (Figs. 2B and S3). To assess this hypothesis, we generated two RasGAP^232 mutants that disrupt the phosphotyrosine-binding sites of either the N- or C-SH2 domains and conducted further ITC experiments. […] For the ‘FLVR-unique” C-terminal SH2, we introduced a double mutation R398E/K400E, to abrogate phosphotyrosine binding guided by our previous work ([52]), termed RasGAP^232(mut) (Fig. 2D). We additionally generated a double mutant of both SH2 domains, RasGAP^2(mut)32(mut), and purified each of these proteins (Fig. S2, B–D). […] We then assessed phosphopeptide binding of the single mutant SH2 domains. […] This is similar to the Kd of 2 ± 0.7 μM observed for titration of this peptide into WT RasGAP^232.
To attempt to parse the specificity of RasGAP for the more N- or C-terminal EphB juxtamembrane phosphotyrosines pY590 and pY596, we assessed the affinity of RasGAP^232(mut) for shorter synthesized EphB4 peptides corresponding to either of the two phosphotyrosines (Fig. 1C). […] Alternatively, the C-terminal SH2 may contribute to a second weaker interaction in a tandem interaction. […] This low-affinity interaction represents a primarily single N-SH2-dominant interaction.
Purified RasGAP^232 protein and solubilized peptides were dialyzed overnight against buffer containing 20 mM Tris pH 8, 250 mM NaCl in Slide-A-Lyzer 3 ml 10 kDa molecular weight cut off cassettes (Spectra-Por) and Micro Float-A-Lyzer 0.1 to 0.2 ml, 0.1 to […] molecular weight cut off devices (Spectra-Por), respectively. Protein and peptide concentrations were determined by A280 measured on a Nanodrop Lite (Thermo Fisher Scientific) instrument using extinction coefficients of 45,840 M^−1 cm^−1 for RasGAP^232 (and mutants), 917 M^−1 cm^−1 for the doubly phosphorylated EphB4 peptide, and 458.5 M^−1 cm^−1 for the singly phosphorylated EphB4 peptides as determined by ([74]). Dok1 peptide concentration was confirmed using Amino Acid Analysis performed at UC Davis Molecular Structure Facility. Samples were centrifuged for 10 min at 4 °C and degassed for 7 min using a Degassing Station (TA Instruments). ITC experiments were performed on a Nano ITC (TA Instruments) by loading protein into the 190 μl sample cell and titrating 20 times with 2.5 μl peptide in the titration syringe. Concentrations for sample cell and syringe for each trial are included in Table S1. The data were analyzed in NanoAnalyze software (TA Instrument) using blank (constant) and independent models (https://www.tainstruments.com/itcrun-dscrun-nanoanalyze-software/).

[4] abbreviates: ITC, average of trials (Table S1).

Several values for one entry are separate records, joined by “and”; a condition that tells them apart may be missing. Equal entries are not always repeated. Where two headings read alike, the source gives them in different places. Square brackets hold non-standard residues; d marks the D form. Peptide text beside a SMILES is read from it. pY = N[C@@H](Cc1ccc(OP(=O)(O)O)cc1)C(=O)O

Chain of p120RasGAP SH2-SH3-SH2 (P20936 174-444): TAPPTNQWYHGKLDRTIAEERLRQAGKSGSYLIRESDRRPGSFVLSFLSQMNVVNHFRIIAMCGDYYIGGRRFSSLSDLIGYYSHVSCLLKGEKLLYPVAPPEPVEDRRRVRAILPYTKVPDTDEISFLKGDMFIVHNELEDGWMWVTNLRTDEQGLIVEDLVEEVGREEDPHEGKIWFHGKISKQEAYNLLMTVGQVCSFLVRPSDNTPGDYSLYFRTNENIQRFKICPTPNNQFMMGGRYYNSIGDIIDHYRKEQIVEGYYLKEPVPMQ
Chain of p190RhoGAP-A doubly phosphorylated peptide (Homo sapiens) (Q9NRY4 1083-1111): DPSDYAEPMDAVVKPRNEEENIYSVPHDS

“p120RasGAP SH2-SH3-SH2 (from UniProt P20936)”: in series [1], the Kd was 10 nM.

`CC[C@H](C)[C@H](NC(=O)[C@H](Cc1ccc(OP(=O)(O)O)cc1)NC(=O)[C@@H](NC(=O)[C@H](CCCCN)NC(=O)[C@@H](NC(=O)CNC(C)=O)[C@@H](C)O)C(C)C)C(=O)N[C@@H](CC(=O)O)C(=O)N1CCC[C@H]1C(=O)N[C@@H](Cc1ccccc1)C(=O)N[C@H](C(=O)N[C@@H](Cc1ccc(OP(=O)(O)O)cc1)C(=O)N[C@@H](CCC(=O)O)C(=O)N[C@@H](CC(=O)O)C(=O)N1CCC[C@H]1C(=O)N[C@@H](CC(N)=O)C(=O)N[C@@H](CCC(=O)O)C(=O)N[C@@H](C)C(N)=O)[C@@H](C)O` [pYpY EphB4] (Ac-GTKV[pY]IDPFT[pY]EDPNEA-NH2): the “solubility on reconstitution, in words” value in series [2] is on record as “less soluble”. Besides, in series [3] (ITC, 20 mM Tris pH 8, 250 mM NaCl, independent model, mean ± SD of trials (n = 4 pYpY EphB4, n = 3 pY590, pY596), read-out: Kd), the Kd was determined as 1000 ± 300 nM.

`CC[C@H](C)[C@H](NC(=O)[C@H](Cc1ccc(OP(=O)(O)O)cc1)NC(=O)[C@@H](NC(=O)[C@H](CCCCN)NC(=O)[C@@H](NC(=O)CNC(C)=O)[C@@H](C)O)C(C)C)C(=O)N[C@@H](CC(=O)O)C(=O)N1CCC[C@H]1C(=O)N[C@@H](Cc1ccccc1)C(=O)N[C@H](C(N)=O)[C@@H](C)O` [pY590 EphB4] (Ac-GTKV[pY]IDPFT-NH2): the “solubility on reconstitution, in words” value in series [2] is “less soluble”. Also, the “weaker binding than the doubly phosphorylated EphB4 peptide” value in series [3] (ITC Kd, singly versus doubly phosphorylated EphB4 peptide) is reported as “about 10 fold”. The molecule also returned a n in series [3] (ITC stoichiometry, mean ± SD of trials) of 0.8 ± 0.1. Further, in series [3] (setting [4]), the “-T∆S” value was -2.87 kcal/mol, the Ka was 0.07 µM⁻¹ and the “∆G” value is -6.69 kcal/mol. Moreover, the ΔS in series [3] (ITC, mean ± SD of trials) is 40 J/mol∗K and 40 ± 18 J/mol∗K. In series [3] (trial 2, ITC), the “-T∆S” value was -2.82 kcal/mol, the Ka amounted to 0.07 µM⁻¹, the “∆G” value is -6.6 kcal/mol and the “∆H” value is -3.78 kcal/mol. The “∆S” value in series [3] (trial 2, ITC) is on record as 40.0 J/mol*K. Besides, in series [3] (trial 3, ITC), the “-T∆S” value is -4.16 kcal/mol, the “∆G” value was -6.84 kcal/mol, the “∆H” value was -2.68 kcal/mol and the “∆S” value amounted to 58.3 J/mol*K. Moreover, the Kd in series [3] (trial 3, ITC, read-out: Ka) was 100 nM.
